According to US20240345054A1, “Method of Screening Antioxidants” (Johnson & Johnson Consumer Inc., priority 2021, published 2024):

Legend:
[1] = UVA-induced squalene oxidation in vitro model, MDA formed measured by fluorometric TBARS assay; assay type: biochemical; conditions: 20 J/cm^2 UVA; for Efficacy (percentage difference in MDA generation compared to the untreated, UV-stimulated control sample): 0.12 nM protoporphyrin IX, negative = reduction
Description: The antioxidant test model described above was used to test efficacy of various antioxidants in reducing the oxidation of squalene in conditions reflecting approximately two (2) hours of intense sun exposure. The target Oxidizable Component was squalene, in an amount of 30 μL (9.7% w/w) per sample. The solvents selected were dimethyl sulfoxide, propylene glycol (PG), and 1-butanol, in amounts of 8.3% (v/v), 8.3% (v/v), and 83.5% (v/v) per sample, respectively. The tests further included a biological metabolite, specifically protoporphyrin IX, in an amount of 0.12 nM per sample. The exposure to UVA radiation, using a solar simulator (NewportR), Oriel Instruments U.S.A., model 91293-1000), was 20 J/cm^2, as measured by a calibrated UVA detector probe (Solar Light Company, Inc., model PMA2110-UVS) connected to a calibrated simulator controller (Solar Light Company, Inc., model DCS-2).
To prepare the antioxidant test solutions, the antioxidants were first dissolved (via vortexing and gentle heating if necessary) in a volume of dimethyl sulfoxide (DMSO) that achieved a target concentration for the predetermined use level as outlined in Table 1.
The antioxidant test solutions were then diluted by 50% with propylene glycol (PG). […] The bulk volume was vortexed immediately prior to pipetting 5 replicates of 300 μL samples into the wells of a 24-well plate. The plates were then exposed to the UVA radiation until the target UVA dose was achieved (20 J/cm^2), after which the plate was removed and the amount of MDA formed by lipid peroxidation was analyzed. Care was taken during the experiment to protect the samples from extraneous light oxidation throughout the solution preparation, sample plating, and after the UVA exposure prior to MDA quantitation.
The determination of the amount of MDA formed was performed by fluorometric analysis using a commercial TBARS assay kit (Sigma Aldrich, catalogue #MAK085) that reacts thiobarbituric acid with the MDA present in the sample to form a fluorometric product (λex=532/λem=553 nm), which can be easily quantitated with a monochromator-based microplate reader (Tecan Infinite M1000 Pro) and the accompanying software (Tecan i-control). […] The magnitude of efficacy for each sample, expressed as percentage reduction from the untreated control, was averaged for each antioxidant treatment.
In Table 2 below, “X” means that there was no significant reduction (p<0.05) in the MDA formation as compared to the UV-stimulated control. The % of concentration of the active in the formula tested is identified as “% conc”.

[2] = 1% in oil-in-water emulsion, topical twice daily 2 mg/cm^2 for 7 days on the back, human subjects, 10 J/cm^2 UVA; significant (p<0.05); cited from earlier work
[3] = 0.05% conc of active in formula

For O=C1O[C@H]([C@@H](O)CO)C([O-])=C1OP(=O)([O-])[O-].[Na+].[Na+].[Na+] [sodium ascorbyl phosphate], the “Efficacy (percentage difference in MDA generation compared to the untreated, UV-stimulated control sample)” value ([1]; 1% conc of active in formula) is given as −41%, the “reduction of UV-induced squalene oxidation as compared to the control sample” value ([1]; 1%, in vitro model) is given as 41% and the “reduction of UVA-induced squalene oxidation compared to a placebo formulation” value [2] is given as 30%.
With Cc1cc(C(C)(C)C)c(O)c(C(C)(C)C)c1 [Butylated hydroxytoluene (BHT), Butylated hydroxytoluene] the “Efficacy (percentage difference in MDA generation compared to the untreated, UV-stimulated control sample)” value ([1]; 0.035% conc of active in formula) was −54%.
In the case of CC(=O)Oc1c(C)c(C)c2c(c1C)CCC(C)(CCC[C@H](C)CCC[C@H](C)CCCC(C)C)O2 (some centres unmarked) [Vitamin E acetate], the “Efficacy (percentage difference in MDA generation compared to the untreated, UV-stimulated control sample)” value ([1]; 0.1% conc of active in formula) is reported as −36%.
For Cc1c(C)c2c(c(C)c1O)CC[C@@](C)(CCC[C@H](C)CCC[C@H](C)CCCC(C)C)O2 [Vitamin E (alpha-tocopherol), alpha-tocopherol], the “Efficacy (percentage difference in MDA generation compared to the untreated, UV-stimulated control sample)” value ([1]; 0.1% conc of active in formula) was −61%, the “Efficacy (percentage difference in MDA generation compared to the untreated, UV-stimulated control sample)” value ([1]; 0.5% conc of active in formula) was −78% and the “Efficacy (percentage difference in MDA generation compared to the untreated, UV-stimulated control sample)” value ([1]; 1% conc of active in formula) was −81%.
For CC(C)(CO)[C@H](O)C(=O)NCCCO [D-Panthenol (Provitamin B5), D-Panthenol], the “Efficacy (percentage difference in MDA generation compared to the untreated, UV-stimulated control sample)” value ([1]; 0.25% conc of active in formula) was −21% and the “Efficacy (percentage difference in MDA generation compared to the untreated, UV-stimulated control sample)” value ([1]; 0.5% conc of active in formula) was −18%.
With NC(=O)c1cccnc1 [Niacinamide] the “Efficacy (percentage difference in MDA generation compared to the untreated, UV-stimulated control sample)” value ([1]; 0.5% conc of active in formula) was 58%.
For COc1cc(/C=C/C(=O)O)ccc1O [Ferulic acid], the “Efficacy (percentage difference in MDA generation compared to the untreated, UV-stimulated control sample)” value ([1]; 0.01% conc of active in formula) was −47%, the “Efficacy (percentage difference in MDA generation compared to the untreated, UV-stimulated control sample)” value [1, 3] was −41% and the “Efficacy (percentage difference in MDA generation compared to the untreated, UV-stimulated control sample)” value ([1]; 0.1% conc of active in formula) was −39%.
With O=c1cc(-c2ccc(O)cc2)oc2cc(O)cc(O)c12 [Apigenin] the “Efficacy (percentage difference in MDA generation compared to the untreated, UV-stimulated control sample)” value ([1]; 0.5% conc of active in formula) was −35%.
For O=C(O)/C=C/c1ccc(O)cc1 [p-coumeric acid], the “Efficacy (percentage difference in MDA generation compared to the untreated, UV-stimulated control sample)” value [1, 3] was −48% and the “Efficacy (percentage difference in MDA generation compared to the untreated, UV-stimulated control sample)” value ([1]; 0.1% conc of active in formula) was −55%.
For O=C(O)CO [Glycolic acid], the “Efficacy (percentage difference in MDA generation compared to the untreated, UV-stimulated control sample)” value ([1]; 3% conc of active in formula) was −25%.
For O=C(O)C(O)c1ccccc1 (centres unmarked) [Mandelic acid], the “Efficacy (percentage difference in MDA generation compared to the untreated, UV-stimulated control sample)” value ([1]; 2% conc of active in formula) was 81% and the “Efficacy (percentage difference in MDA generation compared to the untreated, UV-stimulated control sample)” value ([1]; 3% conc of active in formula) was 69%.
